The experiment has as its target PIM1 (Homo sapiens (Human), UniProt P11309). The experiment in a line: biochemical. The format is biochemical. As to conditions: 20 pM PIM1, 1 μM FAM-peptide, 10 μM ATP, 90 minutes at room temperature; read-out: PIM1 LC3K (KI).
Sequence of PIM1 (P11309 whole entry): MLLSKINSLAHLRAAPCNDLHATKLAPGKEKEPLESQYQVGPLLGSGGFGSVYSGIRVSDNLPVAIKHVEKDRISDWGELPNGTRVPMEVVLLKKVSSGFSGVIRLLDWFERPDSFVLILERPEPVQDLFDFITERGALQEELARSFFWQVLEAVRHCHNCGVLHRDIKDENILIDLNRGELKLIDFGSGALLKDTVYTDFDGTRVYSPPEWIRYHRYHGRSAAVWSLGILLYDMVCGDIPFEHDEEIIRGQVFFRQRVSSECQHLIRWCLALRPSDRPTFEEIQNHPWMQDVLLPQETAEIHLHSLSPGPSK
As usually defined, the Ki is a measure of affinity in units of concentration, obtained from inhibition or displacement. With `Cn1ncc(NC(=O)c2csc(-c3cncc(F)c3)n2)c1[C@@H]1CC[C@@H](N)[C@@H](F)CO1` [Example 246, N-(5-((2S,5R,6R)-5-amino-6-fluorooxepan-2-yl)-1-methyl-1H-pyrazol-4-yl)-2-(5-fluoropyridin-3-yl)thiazole-4-carboxamide], the Ki worked out at 5.76 nM.
For `Cn1ncc(NC(=O)c2csc(-c3c(F)cncc3F)n2)c1[C@@H]1CC[C@@H](N)[C@@H](F)CO1` [Example 247, N-(5-((2S,5R,6R)-5-amino-6-fluorooxepan-2-yl)-1-methyl-1H-pyrazol-4-yl)-2-(3,5-difluoropyridin-4-yl)thiazole-4-carboxamide] the value was 0.112 nM; for `Cn1ncc(NC(=O)c2csc(-c3cccc(Cl)c3F)n2)c1[C@@H]1CC[C@@H](N)[C@@H](F)CO1` [Example 248, N-(5-((2S,5R,6R)-5-amino-6-fluorooxepan-2-yl)-1-methyl-1H-pyrazol-4-yl)-2-(3-chloro-2-fluorophenyl)thiazole-4-carboxamide], 0.064 nM.
Turning to `Cn1ncc(NC(=O)c2csc(-c3cccc(-c4cccc(Cl)c4F)c3F)n2)c1[C@@H]1CC[C@@H](N)[C@@H](F)CO1` [Example 249, N-(5-((2S,5R,6R)-5-amino-6-fluorooxepan-2-yl)-1-methyl-1H-pyrazol-4-yl)-2-(3′-chloro-2,2′-difluoro-[1,1′-biphenyl]-3-yl)thiazole-4-carboxamide], the Ki was 0.533 nM.
For `Cn1ncc(NC(=O)c2csc(-c3cccc(F)c3Cl)n2)c1[C@@H]1CC[C@@H](N)[C@@H](F)CO1` [Example 250, N-(5-((2S,5R,6R)-5-amino-6-fluorooxepan-2-yl)-1-methyl-1H-pyrazol-4-yl)-2-(2-chloro-3-fluorophenyl)thiazole-4-carboxamide] the value was 0.132 nM; for `Cn1ncc(NC(=O)c2csc(-c3cccc(F)c3-c3cccc(F)c3Cl)n2)c1[C@@H]1CC[C@@H](N)[C@@H](F)CO1` [Example 251, N-(5-((2S,5R,6R)-5-amino-6-fluorooxepan-2-yl)-1-methyl-1H-pyrazol-4-yl)-2-(2′-chloro-3′,6-difluoro-[1,1′-biphenyl]-2-yl)thiazole-4-carboxamide], 630 nM.
Turning to `Cn1cc(-c2nc(C(=O)Nc3cnn(C)c3[C@@H]3CC[C@@H](N)[C@@H](F)CO3)cs2)c(C(F)(F)F)n1` [Example 252, N-(5-((2S,5R,6R)-5-amino-6-fluorooxepan-2-yl)-1-methyl-1H-pyrazol-4-yl)-2-(1-methyl-3-(trifluoromethyl)-1H-pyrazol-4-yl)thiazole-4-carboxamide], the Ki came to 0.281 nM.
The value for `Cn1cc(-c2nc(C(=O)Nc3cnn(C)c3[C@@H]3CC[C@@H](N)[C@@H](F)CO3)cs2)c(C2CC2)n1` [Example 253, N-(5-((2S,5R,6R)-5-amino-6-fluorooxepan-2-yl)-1-methyl-1H-pyrazol-4-yl)-2-(3-cyclopropyl-1-methyl-1H-pyrazol-4-yl)thiazole-4-carboxamide] was 0.253 nM; that for `Cc1nn(C)cc1-c1nc(C(=O)Nc2cnn(C)c2[C@@H]2CC[C@@H](N)[C@@H](F)CO2)c(N)s1` [Example 254, 5-amino-N-(5-((2S,5R,6R)-5-amino-6-fluorooxepan-2-yl)-1-methyl-1H-pyrazol-4-yl)-2-(1,3-dimethyl-1H-pyrazol-4-yl)thiazole-4-carboxamide] was 0.026 nM; that for `Cc1c(-c2nc(C(=O)Nc3cnn(C)c3[C@@H]3CC[C@@H](N)[C@@H](F)CO3)c(N)s2)cnn1C` [Example 255, 5-amino-N-(5-((2S,5R,6R)-5-amino-6-fluorooxepan-2-yl)-1-methyl-1H-pyrazol-4-yl)-2-(1,5-dimethyl-1H-pyrazol-4-yl)thiazole-4-carboxamide] was 0.007 nM.
Regarding `CC(C)n1cc(-c2nc(C(=O)Nc3cnn(C)c3[C@@H]3CC[C@@H](N)[C@@H](F)CO3)c(N)s2)cn1` [Example 256, 5-amino-N-(5-((2S,5R,6R)-5-amino-6-fluorooxepan-2-yl)-1-methyl-1H-pyrazol-4-yl)-2-(1-isopropyl-1H-pyrazol-4-yl)thiazole-4-carboxamide], the Ki came out at 0.093 nM.
